Experimental findings from PubChem BioAssay AID1259411 (Chemical Carcinogenesis Research Information System (CCRIS), 2018) are described below.

The subject of the data set is rodent carcinogenicity bioassays, tumor incidence. In words: CCRIS carcinogenicity studies. The method in brief: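 NCI-built, expert-reviewed records of carcinogenicity and related test outcomes (mutagenicity, tumor promotion/inhibition) compiled from published and report sources, historical span 1985-2011, not updated.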

Structures are written as SMILES. The source made the active and inactive calls. The rule behind the calls is not given here.

Take `COc1ccccc1[N+](=O)[O-]`: the carcinogen call is, setting by setting: (Species: MOUSE, Strain/Sex: B6C3F1/MALE, Route: ORAL, Dose: 0, 666, 2000, 6000 PPM IN DIET FOR 103 WK (STUDY DURATION: 103 WK), Dose: 0, 666, 2000, 6000 PPM IN DIET FOR 103 WK (STUDY DURATION: 103 WK), Tumor Site: Type of Lesion: LIVER: HEPATOBLASTOMA, HEPATOCELLULAR ADENOMA) “active; positive”; (Species: RAT, Strain/Sex: F344/N/FEMALE, Route: ORAL, Dose: 0, 222, 666, 2000 PPM IN DIET FOR 103 WK (STUDY DURATION: 103 WK), Dose: 0, 222, 666, 2000 PPM IN DIET FOR 103 WK (STUDY DURATION: 103 WK)) “inactive; negative”; (Species: RAT, Strain/Sex: F344/N/FEMALE, Route: ORAL, Dose: 0, 6000, 18,000 PPM IN DIET FOR 27 WK (STUDY DURATION: 104 WK), Dose: 0, 6000, 18,000 PPM IN DIET FOR 27 WK (STUDY DURATION: 104 WK), Tumor Site: Type of Lesion: COLON: ADENOMATOUS POLYP, URINARY BLADDER: CARCINOMA, SARCOMA) “active; positive”; (Species: RAT, Strain/Sex: F344/N/MALE, Route: ORAL, Dose: 0, 222, 666, 2000 PPM IN DIET FOR 103 WK (STUDY DURATION: 103 WK), Dose: 0, 222, 666, 2000 PPM IN DIET FOR 103 WK (STUDY DURATION: 103 WK)) “inactive; negative”; (Species: RAT, Strain/Sex: F344/N/MALE, Route: ORAL, Dose: 0, 6000, 18,000 PPM IN DIET FOR 27 WK (STUDY DURATION: 104 WK), Dose: 0, 6000, 18,000 PPM IN DIET FOR 27 WK (STUDY DURATION: 104 WK), Tumor Site: Type of Lesion: COLON: ADENOMATOUS POLYP, KIDNEY: CARCINOMA, URINARY BLADDER: CARCINOMA, SARCOMA, Tumor Site: Type of Lesion: COLON: ADENOMATOUS POLYP, KIDNEY: CARCINOMA, URINARY BLADDER: CARCINOMA, SARCOMA) “active; positive”.

Regarding `Nc1ccc(N(CCO)CCO)cc1`, the carcinogen call by setting is: (Species: RAT, Strain/Sex: F344/FEMALE, Route: ORAL, Dose: 0, 300, 1000, 3000 PPM IN DIET FOR 104 WK (STUDY DURATION: 104 WK), Dose: 0, 300, 1000, 3000 PPM IN DIET FOR 104 WK (STUDY DURATION: 104 WK)) “inactive; negative”; (Species: RAT, Strain/Sex: F344/MALE, Route: ORAL, Dose: 0, 300, 1000, 3000 PPM IN DIET FOR 104 WK (STUDY DURATION: 104 WK), Dose: 0, 300, 1000, 3000 PPM IN DIET FOR 104 WK (STUDY DURATION: 104 WK)) “inactive; negative”.

Turning to `C=CCN=C=S`, the carcinogen call is, setting by setting: (Species: MOUSE, Strain/Sex: B6C3F1/FEMALE, Route: GAVAGE, Dose: 0, 12, 25 MG/KG IN CORN OIL FOR 103 WK (STUDY DURATION: 103 WK), Dose: 0, 12, 25 MG/KG IN CORN OIL FOR 103 WK (STUDY DURATION: 103 WK)) “inactive; negative”; (Species: MOUSE, Strain/Sex: B6C3F1/MALE, Route: GAVAGE, Dose: 0, 12, 25 MG/KG IN CORN OIL FOR 103 WK (STUDY DURATION: 103 WK), Dose: 0, 12, 25 MG/KG IN CORN OIL FOR 103 WK (STUDY DURATION: 103 WK)) “inactive; negative”; (Species: RAT, Strain/Sex: F344/FEMALE, Route: GAVAGE, Dose: 0, 12, 25 MG/KG IN CORN OIL FOR 103 WK (STUDY DURATION: 103 WK), Dose: 0, 12, 25 MG/KG IN CORN OIL FOR 103 WK (STUDY DURATION: 103 WK), Tumor Site: Type of Lesion: INTEGUMENTARY SYSTEM (SUBCUTANEOUS TISSUE): FIBROSARCOMA) “equivocal”; (Species: RAT, Strain/Sex: F344/MALE, Route: GAVAGE, Dose: 0, 12, 25 MG/KG IN CORN OIL FOR 103 WK (STUDY DURATION: 103 WK), Dose: 0, 12, 25 MG/KG IN CORN OIL FOR 103 WK (STUDY DURATION: 103 WK), Tumor Site: Type of Lesion: URINARY BLADDER: TRANSITIONAL CELL PAPILLOMA) “active; positive”.

In the case of `Cc1ccc(N)c(C)c1`, where the note is “Species: MOUSE, Strain/Sex: CD-1/FEMALE, Route: ORAL, Tumor Site: Type of Lesion: LUNG”, the carcinogen call is “active; positive”.

For `Nc1ccc(Cl)cc1`, the carcinogen call (Species: MOUSE, Strain/Sex: B6C3F1/F, Route: GAVAGE, Dose: 0, 3, 10, 30 MG/KG IN ACIDIFIED WATER 5D/WK FOR 103 WK (STUDY DURATION: 104 WK, Dose: 0, 3, 10, 30 MG/KG IN ACIDIFIED WATER 5D/WK FOR 103 WK (STUDY DURATION: 104 WK) is “inactive; negative”; the carcinogen call (Species: MOUSE, Strain/Sex: B6C3F1/FEMALE, Route: ORAL, Dose: 0, 2500, 5000 PPM IN DIET FOR 78 WK (STUDY DURATION: 91 WK), Dose: 0, 2500, 5000 PPM IN DIET FOR 78 WK (STUDY DURATION: 91 WK), Tumor Site: Type of Lesion: SPLEEN: HEMANGIOMA AND HEMANGIOSARCOMA, LIVER: HEMANGIOSARCOMA, MULTIPLE ORGANS: HEMANGIOSARCOMA, Tumor Site: Type of Lesion: SPLEEN: HEMANGIOMA AND HEMANGIOSARCOMA, LIVER: HEMANGIOSARCOMA, MULTIPLE ORGANS: HEMANGIOSARCOMA) is listed as “equivocal”; the carcinogen call (Species: MOUSE, Strain/Sex: B6C3F1/MALE, Route: GAVAGE, Dose: 0, 3, 10, 30 MG/KG IN ACIDIFIED WATER 5D/WK FOR 103 WK (STUDY DURATION: 104 WK), Dose: 0, 3, 10, 30 MG/KG IN ACIDIFIED WATER 5D/WK FOR 103 WK (STUDY DURATION: 104 WK), Tumor Site: Type of Lesion: LIVER: HEPATOCELLULAR CARCINOMA, LIVER: HEPATOCELLULAR ADENOMA OR CARCINOMA, CIRCULATORY SYSTEM: HEMANGIOSARCOMA, Tumor Site: Type of Lesion: LIVER: HEPATOCELLULAR CARCINOMA, LIVER: HEPATOCELLULAR ADENOMA OR CARCINOMA, CIRCULATORY SYSTEM: HEMANGIOSARCOMA) was “active; positive”; the carcinogen call (Species: MOUSE, Strain/Sex: B6C3F1/MALE, Route: ORAL, Dose: 0, 2500, 5000 PPM IN DIET FOR 78 WK (STUDY DURATION: 91 WK), Dose: 0, 2500, 5000 PPM IN DIET FOR 78 WK (STUDY DURATION: 91 WK), Tumor Site: Type of Lesion: SPLEEN: HEMANGIOSARCOMA, LIVER: HEMANGIOMA AND HEMANGIOSARCOMA, KIDNEY: HEMANGIOSARCOMA, MULTIPLE ORGANS: HEMANGIOSARCOM, Tumor Site: Type of Lesion: SPLEEN: HEMANGIOSARCOMA, LIVER: HEMANGIOMA AND HEMANGIOSARCOMA, KIDNEY: HEMANGIOSARCOMA, MULTIPLE ORGANS: HEMANGIOSARCOM) was “equivocal”; the carcinogen call (Species: RAT, Strain/Sex: F344/FEMALE, Route: GAVAGE, Dose: 0, 2, 6, 18 MG/KG IN ACIDIFIED WATER 5D/WK FOR 103 WK (STUDY DURATION: 104 WK), Dose: 0, 2, 6, 18 MG/KG IN ACIDIFIED WATER 5D/WK FOR 103 WK (STUDY DURATION: 104 WK), Tumor Site: Type of Lesion: SPLEEN: SARCOMA, ADRENAL GLAND: PHEOCHROMOCYTOMA) is given as “equivocal”; the carcinogen call (Species: RAT, Strain/Sex: F344/FEMALE, Route: ORAL, Dose: 0, 250, 500 PPM IN DIET FOR 78 WK (STUDY DURATION: 102 WK), Dose: 0, 250, 500 PPM IN DIET FOR 78 WK (STUDY DURATION: 102 WK)) is “inactive; negative”. Also, the carcinogen call was “active; positive” (Species: RAT, Strain/Sex: F344/MALE, Route: GAVAGE, Dose: 0, 2, 6, 18 MG/KG IN ACIDIFIED WATER 5D/WK FOR 103 WK (STUDY DURATION: 104 WK), Dose: 0, 2, 6, 18 MG/KG IN ACIDIFIED WATER 5D/WK FOR 103 WK (STUDY DURATION: 104 WK), Tumor Site: Type of Lesion: ADRENAL MEDULLA: PHEOCHROMOCYTOMA, ADRENAL MEDULLA: PHEOCHROMOCYTOMA OR MALIGNANT PHEOCHROMOCYTOMA, SPLEEN: FIBROSARCOMA, Tumor Site: Type of Lesion: ADRENAL MEDULLA: PHEOCHROMOCYTOMA, ADRENAL MEDULLA: PHEOCHROMOCYTOMA OR MALIGNANT PHEOCHROMOCYTOMA, SPLEEN: FIBROSARCOMA); “active; positive” (Species: RAT, Strain/Sex: F344/MALE, Route: ORAL, Dose: 0, 250, 500 PPM IN DIET FOR 78 WK (STUDY DURATION: 102 WK), Dose: 0, 250, 500 PPM IN DIET FOR 78 WK (STUDY DURATION: 102 WK), Tumor Site: Type of Lesion: SPLEEN OR PERITONEUM: SARCOMA); “equivocal” (Species: RAT, Strain/Sex: F344/MALE, Route: ORAL, Dose: 0, 250, 500 PPM IN DIET FOR 78 WK (STUDY DURATION: 102 WK), Dose: 0, 250, 500 PPM IN DIET FOR 78 WK (STUDY DURATION: 102 WK), Tumor Site: Type of Lesion: SPLEEN: FIBROMA AND SARCOMA).
